Results reported in ChEMBL document CHEMBL1147948, “Preparation of novel anthranilic acids as antibacterial agents: extensive evaluation of structural and physical properties on antibacterial activity and human serum albumin affinity” (Bioorg Med Chem Lett, 2007).
Values after ≈ are worked out from the molar mass of the structure shown.

Legend:
Staphylococcus aureus [1] = experiment: Antibacterial activity against Staphylococcus aureus UC 9218; assay type: functional
Albumin = Albumin (Homo sapiens, UniProt P02768); experiment: Binding affinity to human serum albumin
Albumin, sequence (P02768 whole entry): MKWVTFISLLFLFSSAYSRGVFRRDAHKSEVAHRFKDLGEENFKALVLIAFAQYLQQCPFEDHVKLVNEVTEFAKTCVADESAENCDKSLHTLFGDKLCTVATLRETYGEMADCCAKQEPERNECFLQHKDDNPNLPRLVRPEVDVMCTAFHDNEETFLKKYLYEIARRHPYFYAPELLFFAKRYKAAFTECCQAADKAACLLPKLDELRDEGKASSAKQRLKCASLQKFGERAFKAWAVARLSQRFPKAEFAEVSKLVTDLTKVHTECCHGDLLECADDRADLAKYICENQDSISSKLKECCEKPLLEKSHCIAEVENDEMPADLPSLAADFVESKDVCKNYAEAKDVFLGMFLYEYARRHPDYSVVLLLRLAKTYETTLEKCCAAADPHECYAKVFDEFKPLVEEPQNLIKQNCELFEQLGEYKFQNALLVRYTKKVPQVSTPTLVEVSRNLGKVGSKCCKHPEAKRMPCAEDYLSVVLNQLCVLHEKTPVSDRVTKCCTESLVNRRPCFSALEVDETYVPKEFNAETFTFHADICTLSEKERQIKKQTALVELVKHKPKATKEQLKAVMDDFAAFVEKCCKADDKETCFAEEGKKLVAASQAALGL

Staphylococcus aureus [2] = experiment: Ratio of MIC of Staphylococcus aureus UC 9218 in presence of 10% serum to MIC of Staphylococcus aureus UC 9218 in absence of serum; assay type: functional
Staphylococcus aureus [3] = experiment: Antibacterial activity against Staphylococcus aureus UC 9218 in presence of 10% human serum; assay type: functional
Staphylococcus aureus [4] = experiment: Antibacterial activity against Staphylococcus aureus UC 9218 in presence of 5% human serum; assay type: functional

Row | Structure (SMILES) | MIC (Staphylococcus aureus [1]) [µg/mL] | Kd (Albumin) [µM] | Ratio (Staphylococcus aureus [2]) | MIC (Staphylococcus aureus [3]) [µg/mL] | MIC (Staphylococcus aureus [4]) [µg/mL]
1 | COCCOCCCSc1ccc(C(=O)Nc2ccc(C#N)cc2C(=O)O)cn1 | 1 (≈ 2.41 µM) | 0.7 | 4 | 4 | 
2 | N#Cc1ccc(NC(=O)c2ccc(SC3CCCCC3)nc2)c(C(=O)O)c1 | 0.5 (≈ 1.31 µM) |  | 64 | 32 | 
3 | O=C(Nc1ccc(Br)cc1C(=O)O)c1ccc(SC2CCCCC2)nc1 | 1 (≈ 2.3 µM) |  | 64 | 64 | 
4 | CCCCCCSc1ccc(C(=O)Nc2ccc(Cl)cc2C(=O)O)cn1 |  |  | 512 | 64 | 
5 | CCCCCCCCCSc1ccc(C(=O)Nc2ccc(C#N)cc2C(=O)O)cn1 | 1 (≈ 2.35 µM) |  | > 128 | > 128 | 
6 | CC(C)Sc1ccc(C(=O)Nc2ccc(Br)cc2C(=O)O)cn1 | 1 (≈ 2.53 µM) |  | 32 | 32 | 
7 | N#Cc1ccc(NC(=O)c2ccc(SC3CCOCC3)nc2)c(C(=O)O)c1 |  |  | 32 | 4 | 
8 | CCCC(C)Sc1ccc(C(=O)Nc2ccc(C#N)cc2C(=O)O)cn1 (stereo not given) |  |  | 128 | 16 | 
9 | CCC(CC)Sc1ccc(C(=O)Nc2ccc(C#N)cc2C(=O)O)cn1 |  |  | 32 | 8 | 
10 | CCCCSc1ccc(C(=O)Nc2ccc(C#N)cc2C(=O)O)cn1 |  |  | 64 | 16 | 
11 | CCCCCCSc1ccc(C(=O)Nc2ccc(C#N)cc2C(=O)O)cn1 |  |  | 64 | 8 | 
12 | CCCCCCSc1ccc(C(=O)Nc2ccc(Br)cc2C(=O)O)cn1 |  |  | 512 | 64 | 
13 | CC(C)(C)c1ccc(-c2ccc(NC(=O)c3cccc(S(=O)(=O)N4CCc5cc(Cl)ccc54)c3)c(C(=O)O)c2)cc1 | 16 (≈ 27.2 µM) |  |  | > 128 | > 128
14 | CCSc1ccc(C(=O)Nc2ccc(C#N)cc2C(=O)O)cn1 | 0.5 (≈ 1.53 µM) |  | 16 | 8 | 
15 | CCCSc1ccc(C(=O)Nc2ccc(C#N)cc2C(=O)O)cn1 | 0.5 (≈ 1.46 µM) |  | 64 | 32 | 
16 | CCCCC(C)Sc1ccc(C(=O)Nc2ccc(C#N)cc2C(=O)O)cn1 (stereo not given) |  |  | 128 | 16 | 
17 | CC(C)(C)c1ccc(-c2cncc(C(=O)Nc3ccc(C#N)cc3C(=O)O)c2)cc1 |  |  |  | > 128 | > 128
18 | CC(C)Sc1ccc(C(=O)Nc2ccc(C#N)cc2C(=O)O)cn1 | 1 (≈ 2.93 µM) |  | 16 | 16 | 
19 | CCCCCSc1ccc(C(=O)Nc2ccc(C#N)cc2C(=O)O)cn1 |  |  | 32 | 4 | 
20 | CC(C)CSc1ccc(C(=O)Nc2ccc(C#N)cc2C(=O)O)cn1 | 0.5 (≈ 1.41 µM) |  | 16 | 8 | 
21 | N#Cc1ccc(NC(=O)c2ccc(SC3CCCC3)nc2)c(C(=O)O)c1 | 0.5 (≈ 1.36 µM) |  | 32 | 16 | 
22 | O=C(Nc1ccc(Br)cc1C(=O)O)c1ccc(SC2CCOCC2)nc1 | 1 (≈ 2.29 µM) |  | 32 | 32 | 
23 | CSc1ccc(C(=O)Nc2ccc(C#N)cc2C(=O)O)cn1 | 32 (≈ 102 µM) |  | 8 | > 128 | 
